The record followed here is patent US20250145633A1, “SUBSTITUTED FURANOPYRIMIDINE COMPOUNDS AS PDE1 INHIBITORS” (Dart NeuroScience, LLC, priority 2017, published 2025).

One experiment deals with human PDE1B enzyme (Homo sapiens (Human), UniProt Q01064). The experiment in a line: IMAP TR-FRET PDE1B enzymatic assay. Format: biochemical. To be noted: negative log of half-maximal molar inhibitory concentration; 200 nM FAM-cAMP; values given as bins. The essentials: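 Full-length GST-tagged human PDE1B (250 pg/well) in IMAP BSA buffer with 10 U/ml calmodulin and 2.5 mM CaCl2; compound pre-incubated 5 min at room temperature, then 200 nM (final) FAM-cAMP for 30 min. IMAP binding reagent/Tb added, 1 h; TR-FRET 520/490 ratio read. IC50 from sigmoidal dose-response fit.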
For `COc1ccccc1[C@H]1[C@@H]2CN(C(=O)c3c(C)oc4ncnc(NC5(C)CC5)c34)C[C@@H]21` [Example 209, 5-[(1R,5S,6S)-6-(2-Methoxyphenyl)-3-azabicyclo[3.1.0]hexane-3-carbonyl]-6-methyl-N-(1-methylcyclopropyl)furo[2,3-d]pyrimidin-4-amine], the “PDE1b (pIC50)” value is reported as greater than 8. Still for that read-out and setting: then `Cc1oc2ncnc(NC3(C)CC3)c2c1C(=O)NCc1cccc(F)c1` [Example 217, N-[(3-Fluorophenyl)methyl]-6-methyl-4-[(1-methylcyclopropyl)amino]furo[2,3-d]pyrimidine-5-carboxamide], with greater than 8; and `Cc1ccc(CNC(=O)c2c(C)oc3ncnc(NC4(C)CC4)c23)cc1C` [Example 237, N-[(3,4-Dimethylphenyl)methyl]-6-methyl-4-[(1-methylcyclopropyl)amino]furo[2,3-d]pyrimidine-5-carboxamide], with greater than 8. Same read-out and setting: for `Cc1cccc(CNC(=O)c2c(C)oc3ncnc(NC4(C)CC4)c23)c1C` [Example 238, N-[(2,3-Dimethylphenyl)methyl]-6-methyl-4-[(1-methylcyclopropyl)amino]furo[2,3-d]pyrimidine-5-carboxamide] the value was greater than 8.

Staying with this experiment, now noted: negative log of half-maximal molar inhibitory concentration; 200 nM FAM-cAMP; values given as bins; read-out: PDE1b (pIC50) (converted).
As to `COc1cccc(CN(C)C(=O)c2c(C)oc3ncnc(NC4(C)CC4)c23)c1` [Example 203, N-[(3-Methoxyphenyl)methyl]-N,6-dimethyl-4-[(1-methylcyclopropyl)amino]furo[2,3-d]pyrimidine-5-carboxamide], the IC50 was 10 to 100 nM.

Regarding `Cc1oc2ncnc(NC3(C)CC3)c2c1C(=O)NCCc1cccc(Cl)c1` [Example 204, N-[2-(3-Chlorophenyl)ethyl]-6-methyl-4-[(1-methylcyclopropyl)amino]furo[2,3-d]pyrimidine-5-carboxamide], the IC50 was 10 to 100 nM. On the same count and under the same terms, for `Cc1oc2ncnc(NC3(C)CC3)c2c1C(=O)NCCc1c[nH]c2ccc(F)cc12` [Example 207, N-[2-(5-Fluoro-1H-indol-3-yl)ethyl]-6-methyl-4-[(1-methylcyclopropyl)amino]furo[2,3-d]pyrimidine-5-carboxamide] the value was 10 to 100 nM; for `Cc1oc2ncnc(NC3(C)CC3)c2c1C(=O)N1C[C@@H]2[C@H](C1)[C@H]2c1ccccc1` [Example 208, 6-Methyl-N-(1-methylcyclopropyl)-5-[(1R,5S,6S)-6-phenyl-azabicyclo[3.1.0]hexane-3-carbonyl]furo[2,3-d]pyrimidin-4-amine], 10 to 100 nM; for `C#CCNC(=O)c1c(C)oc2ncnc(NC3(C)CC3)c12` [Example 210, 6-Methyl-4-[(1-methylcyclopropyl)amino]-N-(prop-2-yn-1-yl)furo[2,3-d]pyrimidine-5-carboxamide], 10 to 100 nM.

As to `CCCNC(=O)c1c(C)oc2ncnc(NC3(C)CC3)c12` [Example 211, 6-Methyl-4-[(1-methylcyclopropyl)amino]-N-propylfuro[2,3-d]pyrimidine-5-carboxamide], the IC50 is 10 to 100 nM. Turning to `Cc1oc2ncnc(NC3(C)CC3)c2c1C(=O)NC1CCC1` [Example 212, N-Cyclobutyl-6-methyl-4-[(1-methylcyclopropyl)amino]furo[2,3-d]pyrimidine-5-carboxamide], the IC50 is 10 to 100 nM. On the same count and under the same terms, then `CCCCNC(=O)c1c(C)oc2ncnc(NC3(C)CC3)c12` [Example 213, N-Butyl-6-methyl-4-[(1-methylcyclopropyl)amino]furo[2,3-d]pyrimidine-5-carboxamide], with 10 to 100 nM; and `Cc1oc2ncnc(NC3(C)CC3)c2c1C(=O)N(C)Cc1ccccn1` [Example 214, N,6-Dimethyl-4-[(1-methylcyclopropyl)amino]-N-(pyridin-2-ylmethyl)furo[2,3-d]pyrimidine-5-carboxamide], with 100 to 1000 nM. Take `Cc1oc2ncnc(NC3(C)CC3)c2c1C(=O)N(C)Cc1cccnc1` [Example 215, N,6-Dimethyl-4-[(1-methylcyclopropyl)amino]-N-(pyridin-3-ylmethyl)furo[2,3-d]pyrimidine-5-carboxamide]: the IC50 was 100 to 1000 nM. `Cc1oc2ncnc(NC3(C)CC3)c2c1C(=O)NCc1ccccc1F` [Example 218, N-[(2-Fluorophenyl)methyl]-6-methyl-4-[(1-methylcyclopropyl)amino]furo[2,3-d]pyrimidine-5-carboxamide]: the IC50 is 10 to 100 nM. Same read-out and setting: for `Cc1oc2ncnc(NC3(C)CC3)c2c1C(=O)NCCCn1ccnc1` [Example 220, N-[3-(1H-Imidazol-1-yl)propyl]-6-methyl-4-[(1-methylcyclopropyl)amino]furo[2,3-d]pyrimidine-5-carboxamide] the value was 10 to 100 nM; for `Cc1oc2ncnc(NC3(C)CC3)c2c1C(=O)NCCc1cccs1` [Example 222, 6-Methyl-4-[(1-methylcyclopropyl)amino]-N-[2-(thiophen-2-yl)ethyl]furo[2,3-d]pyrimidine-5-carboxamide], 10 to 100 nM; for `Cc1oc2ncnc(NC3(C)CC3)c2c1C(=O)N(C)Cc1ccsc1` [Example 223, N,6-Dimethyl-4-[(1-methylcyclopropyl)amino]-N-(thiophen-3-ylmethyl)furo[2,3-d]pyrimidine-5-carboxamide], 10 to 100 nM. For `Cc1oc2ncnc(NC3(C)CC3)c2c1C(=O)N(C)Cc1cccs1` [Example 224, N,6-Dimethyl-4-[(1-methylcyclopropyl)amino]-N-(thiophen-2-ylmethyl)furo[2,3-d]pyrimidine-5-carboxamide], the IC50 was 10 to 100 nM. The same measure, in the same setting: for `Cc1oc2ncnc(NC3(C)CC3)c2c1C(=O)NCCC1CCCCC1` [Example 225, N-(2-Cyclohexylethyl)-6-methyl-4-[(1-methylcyclopropyl)amino]furo[2,3-d]pyrimidine-5-carboxamide] the value was 10 to 100 nM; for `Cc1oc2ncnc(NC3(C)CC3)c2c1C(=O)NC1CCc2ccccc21` (stereo not shown) [Example 230, N-(2,3-Dihydro-1H-inden-1-yl)-6-methyl-4-[(1-methylcyclopropyl)amino]furo[2,3-d]pyrimidine-5-carboxamide], 10 to 100 nM; for `Cc1oc2ncnc(NC3(C)CC3)c2c1C(=O)N1CCc2ccccc2C1` [Example 233, 6-Methyl-N-(1-methylcyclopropyl)-5-(1,2,3,4-tetrahydroisoquinoline-2-carbonyl)furo[2,3-d]pyrimidin-4-amine], 10 to 100 nM. On the same count and under the same terms, then `Cc1ccc(CCNC(=O)c2c(C)oc3ncnc(NC4(C)CC4)c23)cc1` [Example 235, 6-Methyl-4-[(1-methylcyclopropyl)amino]-N-[2-(4-methylphenyl)ethyl]furo[2,3-d]pyrimidine-5-carboxamide], with 10 to 100 nM; and `Cc1ccccc1CCNC(=O)c1c(C)oc2ncnc(NC3(C)CC3)c12` [Example 236, 6-Methyl-4-[(1-methylcyclopropyl)amino]-N-[2-(2-methylphenyl)ethyl]furo[2,3-d]pyrimidine-5-carboxamide], with 10 to 100 nM. Same read-out and setting: then `Cc1oc2ncnc(NC3(C)CC3)c2c1C(=O)NC(C)(C)c1ccccc1` [Example 239, 6-Methyl-4-[(1-methylcyclopropyl)amino]-N-(2-phenylpropan-2-yl)furo[2,3-d]pyrimidine-5-carboxamide], with 10 to 100 nM; and `COc1ccc(NC(=O)c2c(C)oc3ncnc(NC4(C)CC4)c23)c(C)c1` [Example 244, N-(4-Methoxy-2-methylphenyl)-6-methyl-4-[(1-methylcyclopropyl)amino]furo[2,3-d]pyrimidine-5-carboxamide], with 10 to 100 nM; and `COc1cccc(CNC(=O)c2c(C)oc3ncnc(NC4(C)CC4)c23)c1` [Example 246, N-[(3-Methoxyphenyl)methyl]-6-methyl-4-[(1-methylcyclopropyl)amino]furo[2,3-d]pyrimidine-5-carboxamide], with 10 to 100 nM. `Cc1oc2ncnc(NC3(C)CC3)c2c1C(=O)N(C)Cc1ccc(F)cc1` [Example 248, N-[(4-Fluorophenyl)methyl]-N,6-dimethyl-4-[(1-methylcyclopropyl)amino]furo[2,3-d]pyrimidine-5-carboxamide]: the IC50 was 10 to 100 nM. For the molecule `Cc1oc2ncnc(NC3(C)CC3)c2c1C(=O)N(C)Cc1ccccc1F` [Example 249, N-[(2-Fluorophenyl)methyl]-N,6-dimethyl-4-[(1-methylcyclopropyl)amino]furo[2,3-d]pyrimidine-5-carboxamide], the IC50 is 10 to 100 nM. On the same count and under the same terms, then `Cc1oc2ncnc(NC3(C)CC3)c2c1C(=O)N(C)Cc1cccc(F)c1` [Example 250, N-[(3-Fluorophenyl)methyl]-N,6-dimethyl-4-[(1-methylcyclopropyl)amino]furo[2,3-d]pyrimidine-5-carboxamide], with 10 to 100 nM; and `CCc1cc(CN(C)C(=O)c2c(C)oc3ncnc(NC4(C)CC4)c23)on1` [Example 251, N-[(3-Ethyl-1,2-oxazol-5-yl)methyl]-N,6-dimethyl-4-[(1-methylcyclopropyl)amino]furo[2,3-d]pyrimidine-5-carboxamide], with 10 to 100 nM; and `COc1cc(NC(=O)c2c(C)oc3ncnc(NC4(C)CC4)c23)ccc1F` [Example 253, N-(4-Fluoro-3-methoxyphenyl)-6-methyl-4-[(1-methylcyclopropyl)amino]furo[2,3-d]pyrimidine-5-carboxamide], with 10 to 100 nM. Turning to `Cc1oc2ncnc(NC3(C)CC3)c2c1C(=O)NCc1ccccc1Cl` [Example 254, N-[(2-Chlorophenyl)methyl]-6-methyl-4-[(1-methylcyclopropyl)amino]furo[2,3-d]pyrimidine-5-carboxamide], the IC50 was 10 to 100 nM. Same read-out and setting: then `Cc1ccc(Cl)c(NC(=O)c2c(C)oc3ncnc(NC4(C)CC4)c23)c1` [Example 256, N-(2-Chloro-5-methylphenyl)-6-methyl-4-[(1-methylcyclopropyl)amino]furo[2,3-d]pyrimidine-5-carboxamide], with 10 to 100 nM.
